PubChem BioAssay AID248 (DTP/NCI, 2004)
Several values for one entry are separate records, joined by “and”; a condition that tells them apart may be missing. Equal entries are not always repeated. Inconclusive results and toxic doses are left out. No stated cut-off is given here; in the data, active means T/C of 150% or more; inactive means T/C below 125%.

Tested on: L1210 leukemia ip in BDF1 mice, survival T/C
Assay: NCI In Vivo Anticancer Drug Screen. Data for tumor model L1210 Leukemia (intraperitoneal) in B6D2F1 (BDF1) mice
Details: higher = longer survival
How it was run: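 Read-out is survival time, reported as the treated-group measurement over the vehicle-control measurement.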

[1] = endpoint: mean survival time, dose: 200.0 mg/kg/injection, schedule: Q04DX003 (ip), vehicle: saline
[2] = endpoint: mean survival time, dose: 100.0 mg/kg/injection, schedule: Q01DX009 (ip), vehicle: Klucel (hydroxypropylcellulose) (HPC)
[3] = endpoint: mean survival time, dose: 200.0 mg/kg/injection, schedule: Q01DX009 (ip), vehicle: Klucel (hydroxypropylcellulose) (HPC)

Measured: T/C

c1cc2n(n1)CCN2
active: endpoint: mean survival time, dose: 400.0 mg/kg/injection, schedule: Q04DX003 (ip), vehicle: water 151 % of control | endpoint: mean survival time, dose: 600.0 mg/kg/injection, schedule: Q04DX003 (ip), vehicle: saline 177 % of control | endpoint: mean survival time, dose: 800.0 mg/kg/injection, schedule: Q08DX002 (ip), vehicle: saline 158 % of control | endpoint: median survival time, dose: 200.0 mg/kg/injection, schedule: Q01DX009 (sc), vehicle: saline 150 % of control | endpoint: median survival time, dose: 400.0 mg/kg/injection, schedule: Q04DX003 (ip), vehicle: Klucel (hydroxypropylcellulose) (HPC) 150 % of control | endpoint: median survival time, dose: 400.0 mg/kg/injection, schedule: Q04DX003 (ip), vehicle: saline 166 % of control | endpoint: median survival time, dose: 400.0 mg/kg/injection, schedule: Q04DX003 (sc), vehicle: saline 195 % of control | endpoint: median survival time, dose: 400.0 mg/kg/injection, schedule: Q08DX002 (ip), vehicle: saline 150 % of control | endpoint: median survival time, dose: 600.0 mg/kg/injection, schedule: Q04DX003 (sc), vehicle: saline 150 % of control | endpoint: median survival time, dose: 600.0 mg/kg/injection, schedule: Q08DX002 (oral), vehicle: saline 165 % of control | endpoint: median survival time, dose: 600.0 mg/kg/injection, schedule: Q08DX002 (sc), vehicle: saline 180 % of control | endpoint: median survival time, dose: 660.0 mg/kg/injection, schedule: Q08DX002 (ip), vehicle: saline 161 % of control
inactive: endpoint: mean survival time, dose: 26.6 mg/kg/injection, schedule: Q01DX Z (ip), vehicle: methylcellulose (MC) 110 % of control | endpoint: mean survival time, dose: 40.0 mg/kg/injection, schedule: Q01DX Z (ip), vehicle: methylcellulose (MC) 108 % of control | endpoint: mean survival time, dose: 50.0 mg/kg/injection, schedule: Q01DX009 (ip), vehicle: water 109 % of control | endpoint: mean survival time, dose: 60.0 mg/kg/injection, schedule: Q01DX Z (ip), vehicle: methylcellulose (MC) 107 % of control and 112 % of control | endpoint: mean survival time, dose: 90.0 mg/kg/injection, schedule: Q01DX Z (ip), vehicle: methylcellulose (MC) 104 % of control and 112 % of control | endpoint: mean survival time, dose: 100.0 mg/kg/injection, schedule: Q01DX001 (ip), vehicle: saline 103 % of control | endpoint: mean survival time, dose: 100.0 mg/kg/injection, schedule: Q01DX001 (sc), vehicle: saline 112 % of control | endpoint: mean survival time, dose: 100.0 mg/kg/injection, schedule: Q01DX009 (ip), vehicle: saline 112 % of control | endpoint: mean survival time, dose: 100.0 mg/kg/injection, schedule: Q01DX009 (ip), vehicle: water 107 % of control | endpoint: mean survival time, dose: 100.0 mg/kg/injection, schedule: Q04DX003 (ip), vehicle: saline 98 % of control and 100 % of control and 104 % of control | endpoint: mean survival time, dose: 100.0 mg/kg/injection, schedule: Q04DX003 (ip), vehicle: water 114 % of control | endpoint: mean survival time, dose: 100.0 mg/kg/injection, schedule: Q04DX003 (sc), vehicle: saline 102 % of control and 105 % of control | endpoint: mean survival time, dose: 100.0 mg/kg/injection, schedule: Q08DX002 (ip), vehicle: saline 105 % of control | endpoint: mean survival time, dose: 132.0 mg/kg/injection, schedule: Q01DX009 (ip), vehicle: saline 115 % of control | endpoint: mean survival time, dose: 135.0 mg/kg/injection, schedule: Q01DX Z (ip), vehicle: methylcellulose (MC) 100 % of control | endpoint: mean survival time, dose: 200.0 mg/kg/injection, schedule: Q01DX001 (ip), vehicle: saline 101 % of control | endpoint: mean survival time, dose: 200.0 mg/kg/injection, schedule: Q01DX001 (oral), vehicle: saline 105 % of control | endpoint: mean survival time, dose: 200.0 mg/kg/injection, schedule: Q01DX001 (sc), vehicle: saline 112 % of control | endpoint: mean survival time, dose: 200.0 mg/kg/injection, schedule: Q01DX009 (ip), vehicle: water 121 % of control | [1] 98 % of control and 107 % of control and 124 % of control | endpoint: mean survival time, dose: 200.0 mg/kg/injection, schedule: Q04DX003 (oral), vehicle: saline 110 % of control and 116 % of control | endpoint: mean survival time, dose: 200.0 mg/kg/injection, schedule: Q04DX003 (sc), vehicle: saline 108 % of control and 118 % of control | endpoint: mean survival time, dose: 200.0 mg/kg/injection, schedule: Q08DX002 (ip), vehicle: saline 93 % of control | endpoint: mean survival time, dose: 264.0 mg/kg/injection, schedule: Q04DX003 (ip), vehicle: saline 110 % of control and 117 % of control | endpoint: mean survival time, dose: 400.0 mg/kg/injection, schedule: Q01DX001 (ip), vehicle: saline 116 % of control | endpoint: mean survival time, dose: 400.0 mg/kg/injection, schedule: Q01DX001 (oral), vehicle: saline 113 % of control | endpoint: mean survival time, dose: 400.0 mg/kg/injection, schedule: Q04DX003 (oral), vehicle: saline 124 % of control | endpoint: mean survival time, dose: 400.0 mg/kg/injection, schedule: Q04DX003 (sc), vehicle: saline 120 % of control | endpoint: mean survival time, dose: 400.0 mg/kg/injection, schedule: Q08DX002 (ip), vehicle: saline 101 % of control | endpoint: mean survival time, dose: 800.0 mg/kg/injection, schedule: Q01DX001 (oral), vehicle: saline 119 % of control | endpoint: mean survival time, dose: 800.0 mg/kg/injection, schedule: Q04DX003 (ip), vehicle: saline 102 % of control and 104 % of control | endpoint: mean survival time, dose: 800.0 mg/kg/injection, schedule: Q04DX003 (oral), vehicle: saline 108 % of control and 118 % of control | endpoint: mean survival time, dose: 800.0 mg/kg/injection, schedule: Q04DX003 (sc), vehicle: saline 100 % of control | endpoint: median survival time, dose: 13.0 mg/kg/injection, schedule: Q03HX024 (ip), vehicle: saline 102 % of control | endpoint: median survival time, dose: 20.0 mg/kg/injection, schedule: Q03HX024 (ip), vehicle: saline 100 % of control | endpoint: median survival time, dose: 30.0 mg/kg/injection, schedule: Q03HX024 (ip), vehicle: saline 103 % of control | endpoint: median survival time, dose: 40.0 mg/kg/injection, schedule: Q01DX009 (ip), vehicle: saline 104 % of control | endpoint: median survival time, dose: 50.0 mg/kg/injection, schedule: Q01DX009 (oral), vehicle: saline 110 % of control | endpoint: median survival time, dose: 50.0 mg/kg/injection, schedule: Q01DX009 (sc), vehicle: saline 100 % of control | endpoint: median survival time, dose: 60.0 mg/kg/injection, schedule: Q01DX009 (ip), vehicle: saline 111 % of control | endpoint: median survival time, dose: 88.0 mg/kg/injection, schedule: Q01DX009 (ip), vehicle: saline 113 % of control | endpoint: median survival time, dose: 100.0 mg/kg/injection, schedule: Q01DX005 (ip), vehicle: saline 111 % of control | endpoint: median survival time, dose: 100.0 mg/kg/injection, schedule: Q01DX009 (ip), vehicle: saline 113 % of control | endpoint: median survival time, dose: 100.0 mg/kg/injection, schedule: Q01DX009 (oral), vehicle: saline 115 % of control | endpoint: median survival time, dose: 100.0 mg/kg/injection, schedule: Q01DX009 (sc), vehicle: saline 120 % of control | endpoint: median survival time, dose: 100.0 mg/kg/injection, schedule: Q04DX003 (ip), vehicle: Klucel (hydroxypropylcellulose) (HPC) 105 % of control | endpoint: median survival time, dose: 100.0 mg/kg/injection, schedule: Q04DX003 (ip), vehicle: saline 116 % of control | endpoint: median survival time, dose: 100.0 mg/kg/injection, schedule: Q08DX002 (ip), vehicle: saline 100 % of control | endpoint: median survival time, dose: 108.0 mg/kg/injection, schedule: Q04DX003 (ip), vehicle: saline 100 % of control | endpoint: median survival time, dose: 133.0 mg/kg/injection, schedule: Q01DX009 (ip), vehicle: saline 121 % of control | endpoint: median survival time, dose: 133.0 mg/kg/injection, schedule: Q04DX003 (ip), vehicle: saline 119 % of control | endpoint: median survival time, dose: 133.0 mg/kg/injection, schedule: Q08DX002 (ip), vehicle: saline 119 % of control | endpoint: median survival time, dose: 180.0 mg/kg/injection, schedule: Q04DX003 (ip), vehicle: saline 100 % of control | endpoint: median survival time, dose: 200.0 mg/kg/injection, schedule: Q01DX001 (ip), vehicle: saline 103 % of control | endpoint: median survival time, dose: 200.0 mg/kg/injection, schedule: Q01DX009 (ip), vehicle: saline 106 % of control | endpoint: median survival time, dose: 200.0 mg/kg/injection, schedule: Q01DX009 (oral), vehicle: saline 86 % of control | endpoint: median survival time, dose: 200.0 mg/kg/injection, schedule: Q04DX003 (oral), vehicle: saline 119 % of control and 120 % of control | endpoint: median survival time, dose: 200.0 mg/kg/injection, schedule: Q08DX002 (oral), vehicle: saline 111 % of control and 120 % of control | endpoint: median survival time, dose: 300.0 mg/kg/injection, schedule: Q01DX001 (ip), vehicle: saline 104 % of control | endpoint: median survival time, dose: 300.0 mg/kg/injection, schedule: Q04DX003 (ip), vehicle: saline 110 % of control | endpoint: median survival time, dose: 444.0 mg/kg/injection, schedule: Q01DX001 (ip), vehicle: saline 114 % of control | endpoint: median survival time, dose: 600.0 mg/kg/injection, schedule: Q04DX003 (ip), vehicle: saline 101 % of control | endpoint: median survival time, dose: 600.0 mg/kg/injection, schedule: Q04DX003 (oral), vehicle: saline 90 % of control | endpoint: median survival time, dose: 800.0 mg/kg/injection, schedule: Q04DX003 (ip), vehicle: saline 106 % of control and 70 % of control

Clc1nnc(Nc2ccccc2)c2ccccc12
inactive: [2] 96 % of control | [3] 93 % of control | [1] 93 % of control | endpoint: mean survival time, dose: 400.0 mg/kg/injection, schedule: Q04DX003 (ip), vehicle: saline 91 % of control

c1ccc(C2OC2(c2ccccc2)c2ccccc2)cc1 (stereo unspecified)
inactive: [2] 95 % of control | endpoint: mean survival time, dose: 100.0 mg/kg/injection, schedule: Q04DX003 (ip), vehicle: saline with Tween-80 101 % of control | [3] 102 % of control | endpoint: mean survival time, dose: 200.0 mg/kg/injection, schedule: Q04DX003 (ip), vehicle: saline with Tween-80 92 % of control | endpoint: mean survival time, dose: 400.0 mg/kg/injection, schedule: Q01DX009 (ip), vehicle: Klucel (hydroxypropylcellulose) (HPC) 102 % of control | endpoint: mean survival time, dose: 400.0 mg/kg/injection, schedule: Q04DX003 (ip), vehicle: saline with Tween-80 95 % of control
